Data taken from patent publication US10526327B2, “Histone demethylase inhibitors” (CELGENE QUANTICEL RESEARCH, INC., priority 2013, dated 2020).

Experiments:
[1] = molecular target: T1, Jarid1A (Homo sapiens, UniProt P29375); assay: Jarid1A in vitro enzyme inhibition assay (TR-FRET); format: biochemical
T1 construct: purchased BPS Bioscience 50110
T1 sequence (P29375 1-1090): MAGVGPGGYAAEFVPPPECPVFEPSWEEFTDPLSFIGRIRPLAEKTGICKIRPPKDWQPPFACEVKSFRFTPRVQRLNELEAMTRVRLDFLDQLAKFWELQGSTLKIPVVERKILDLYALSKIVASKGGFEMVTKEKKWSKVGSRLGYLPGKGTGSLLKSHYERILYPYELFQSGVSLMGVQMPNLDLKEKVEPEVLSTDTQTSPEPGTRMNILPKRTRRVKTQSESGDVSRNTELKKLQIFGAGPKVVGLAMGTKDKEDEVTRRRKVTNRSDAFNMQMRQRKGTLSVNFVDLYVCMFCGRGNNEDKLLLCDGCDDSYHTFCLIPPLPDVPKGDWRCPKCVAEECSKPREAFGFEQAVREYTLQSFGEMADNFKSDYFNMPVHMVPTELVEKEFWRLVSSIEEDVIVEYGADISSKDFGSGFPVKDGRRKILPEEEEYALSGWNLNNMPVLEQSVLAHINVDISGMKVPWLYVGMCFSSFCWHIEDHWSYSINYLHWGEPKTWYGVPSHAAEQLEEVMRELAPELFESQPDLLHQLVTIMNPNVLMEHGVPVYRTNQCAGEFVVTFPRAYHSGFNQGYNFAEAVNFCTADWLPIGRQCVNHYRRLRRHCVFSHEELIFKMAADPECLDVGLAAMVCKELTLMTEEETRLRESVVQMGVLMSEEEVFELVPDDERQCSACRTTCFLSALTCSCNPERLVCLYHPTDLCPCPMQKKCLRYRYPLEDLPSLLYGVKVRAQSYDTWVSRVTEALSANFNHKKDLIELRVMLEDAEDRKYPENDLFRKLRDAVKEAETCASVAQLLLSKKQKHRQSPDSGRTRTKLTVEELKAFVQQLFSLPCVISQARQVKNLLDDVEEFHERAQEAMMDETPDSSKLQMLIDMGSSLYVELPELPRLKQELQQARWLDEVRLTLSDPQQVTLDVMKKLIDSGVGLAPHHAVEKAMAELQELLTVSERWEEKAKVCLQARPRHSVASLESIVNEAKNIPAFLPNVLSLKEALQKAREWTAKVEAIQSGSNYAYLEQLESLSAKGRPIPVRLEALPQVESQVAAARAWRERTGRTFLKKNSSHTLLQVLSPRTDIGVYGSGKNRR
Method in brief: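 Demethylation of 300 nM biotin-H3K4me3 peptide by 1 nM baculovirus-expressed Jarid1A (aa 1–1090) with 2 μM α-ketoglutarate, Fe(II) and ascorbate, pH 7.3, 30 min at room temperature. Stopped with EDTA; H3K4me1-2 product detected by TR-FRET (Eu anti-H3K4me1-2/streptavidin-APC). IC50 fitted from 665/615 ratio over 11-point dilutions.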

[2] = tested on: KDM5A/B; assay: In vitro cell-based assay: immuno-blot quantification of tri-methyl H3K4 in ZR-75-1 breast cancer cells; conditions: 72 hours, tri-methyl H3K4 level relative to GAPDH, percent of DMSO, read-out: Cellular IC50
Source text: An assay to measure the degree of cellular inhibition of KDM5A and 5B was developed. This quantitative immuno-blotting assay measures the amount tri-methylated histone H3 at amino acid Lysine number 4, a specific substrate […] of the direct enzymatic activity of the histone demethylases KDM5A and KDM5B from extracts of the ZR-75-1 breast cancer cell line.
This assay is a fluorometric immunoassay for the quantification of tri-methyl H3K4 extracted from cells treated with test compound and is used as a measure of the cellular inhibition of KDM5A/B.
ZR-75-1 (PTEN null, ER+) breast cancer cells numbering 50,000 (ATCC) were seeded into each well of a 96-well tissue culture treated plate and then exposed to an 11 point dilution of test compound with final concentration ranges of test compound ranging from 1250 μM to 10 nM. Cells were left in the presence of test compound for 72 hours. Extracts were prepared containing all of the cellular histone material using detergent based lysis and sonication methods. These lysates were subsequently normalized for total protein content using a colorimetric bicinchonic acid assay (MicroBCA Pierce/Thermo Scientific). Normalized cell extracts were then subjected to typical immuno-blotting procedures using NuPage reagents (Life Technologies). Electrophoretically separated histones were then transferred and immobilized using polyvinylidene difluoride membrane (Immobilon-FL Millipore). The amount of tri-methylated lysine 4 of histone H3 was detected using an antibody specific to the tri-methylated state (Cell Signaling Technologies) and quantified on an infrared imager using a densitometry software package (Odyssey CLx, Image Studio, Li-Cor). This background subtracted densitometry value was reported as a ration of the GAPDH amount for that sample and then calculated as a percent of the DMSO treated sample. The software package XL-fit (IDBS) was then used to calculate a relative IC50 value for the dilution series of a given test compound according to the equation: fit=(D+((Vmax*(x^n))/((x^n)+(Km^n)))).

Row | IC50 [1] | IC50 [2] | Compound
1 | ≤ 100 nM | 100 to 1000 nM | O=S(=O)(C1CC1)N1CCCC(n2cc(Oc3nc(O)c4ccncc4n3)cn2)C1 (stereo in doubt) [Example 151, 2-({1-[(3S)-1-(cyclopropanesulfonyl)piperidin-3-yl]-1H-pyrazol-4-yl}oxy)pyrido[3,4-d]pyrimidin-4-ol]
2 | ≤ 100 nM | > 10000 nM | Oc1nc(OCCC(F)(F)F)nc2cnccc12 [Example 13, 2-(3,3,3-trifluoropropoxy)pyrido[3,4-d]pyrimidin-4-ol]
3 | ≤ 100 nM | 1000 to 10000 nM | Oc1nc(OCCc2ccccc2)nc2cnccc12 [Example 18, 2-(2-phenylethoxy)pyrido[3,4-d]pyrimidin-4-ol]
4 | ≤ 100 nM | 100 to 1000 nM | Cn1cnc(-c2nccc3c(O)nc(Oc4ccc(Cl)c(Cl)c4)nc23)c1 [Example 113, 2-(3,4-dichlorophenoxy)-8-(1-methyl-1H-imidazol-4-yl)pyrido[3,4-d]pyrimidin-4-ol]
5 | ≤ 100 nM | 1000 to 10000 nM | CCC(c1ccccc1)n1cc(Oc2nc(O)c3ccncc3n2)cn1 (stereo not drawn) [Example 115, 2-{[1-(1-phenylpropyl)-1H-pyrazol-4-yl]oxy}pyrido[3,4-d]pyrimidin-4-ol]
6 | ≤ 100 nM | 1000 to 10000 nM | C[C@H](c1ccccc1)n1cc(Oc2nc(O)c3ccncc3n2)cn1 [Example 117, 2-({1-[(1R)-1-phenylethyl]-1H-pyrazol-4-yl}oxy)pyrido[3,4-d]pyrimidin-4-ol]
7 | ≤ 100 nM | 100 to 1000 nM | C[C@@H](c1ccccc1)n1cc(Oc2nc(O)c3ccncc3n2)cn1 [Example 118, 2-({1-[(1S)-1-phenylethyl]-1H-pyrazol-4-yl}oxypyrido) [3,4-d]pyrimidin-4-ol]
8 | ≤ 100 nM | 100 to 1000 nM | C[C@H](c1ccccc1F)n1cc(Oc2nc(O)c3ccncc3n2)cn1 [Example 119, 2-({1-[(1R)-1-(2-fluorophenyl)ethyl]-1H-pyrazol-4-yl}oxy)pyrido[3,4-d]pyrimidin-4-ol]
9 | ≤ 100 nM | 1000 to 10000 nM | C[C@@H](c1ccccc1F)n1cc(Oc2nc(O)c3ccncc3n2)cn1 [Example 120, 2-({1-[(1s)-1-(2-fluorophenyl)ethyl]-1H-pyrazol-4-yl}oxy)pyrido[3,4-d]pyrimidin-4-ol]
10 | ≤ 100 nM | 1000 to 10000 nM | Oc1nc(Oc2cnn(Cc3ccccc3Cl)c2)nc2cnccc12 [Example 121, 2-({1-[(2-chlorophenyl)methyl]-1H-pyrazol-4-yl}oxy)pyrido[3,4-d]pyrimidin-4-ol]
11 | ≤ 100 nM | 1000 to 10000 nM | Oc1nc(Oc2cnn(Cc3cccc(Cl)c3)c2)nc2cnccc12 [Example 122, 2-({1-[(3-chlorophenyl)methyl]-1H-pyrazol-4-yl}oxy)pyrido[3,4-d]pyrimidin-4-ol]
12 | ≤ 100 nM | 100 to 1000 nM | Oc1nc(Oc2cnn(CCN3CCOCC3)c2)nc2cnccc12 [Example 124, 2-({1-[2-(morpholin-4-yl)ethyl]-1H-pyrazol-4-yl}oxy)pyrido[3,4-d]pyrimidin-4-ol]
13 | ≤ 100 nM | > 10000 nM | Oc1nc(Oc2cnn([C@@H]3CCNC3)c2)nc2cnccc12 [Example 125, 2-({1-[(3R)-pyrrolidin-3-yl]-1H-pyrazol-4-yl}oxy)pyrido[3,4-d]pyrimidin-4-ol]
14 | ≤ 100 nM | > 10000 nM | CCS(=O)(=O)N1CC[C@@H](n2cc(Oc3nc(O)c4ccncc4n3)cn2)C1 [Example 126, 2-({1-[(3R)-1-(ethanesulfonyl)pyrrolidin-3-yl]-1H-pyrazol-4-yl}oxy)pyrido[3,4-d]pyrimidin-4-ol]
15 | ≤ 100 nM | 1000 to 10000 nM | O=S(=O)(C1CC1)N1CC[C@@H](n2cc(Oc3nc(O)c4ccncc4n3)cn2)C1 [Example 127, 2-({1-[(3R)-1-(cyclopropanesulfonyl)pyrrolidin-3-yl]-1H-pyrazol-4-yl}oxy)pyrido[3,4-d]pyrimidin-4-ol]
16 | ≤ 100 nM | 1000 to 10000 nM | O=S(=O)(c1ccccc1)N1CC[C@@H](n2cc(Oc3nc(O)c4ccncc4n3)cn2)C1 [Example 128, 2-({1-[(3R)-1-(benzenesulfonyl)pyrrolidin-3-yl]-1H-pyrazol-4-yl}oxy)pyrido[3,4-d]pyrimidin-4-ol]
17 | ≤ 100 nM | > 10000 nM | CC(=O)N1CC[C@@H](n2cc(Oc3nc(O)c4ccncc4n3)cn2)C1 [Example 129, 1-[(3R)-3-[4-({4-hydroxypyrido[3,4-d]pyrimidin-2-yl}oxy)-1H-pyrazol-1-yl]pyrrolidin-1-yl]ethan-1-one]
18 | ≤ 100 nM |  | Oc1nc(Oc2cnn([C@@H]3CCCNC3)c2)nc2cnccc12 [Example 149, 2-({1-[(3R)-piperidin-3-yl]-1H-pyrazol-4-yl}oxy)pyrido[3,4-d]pyrimidin-4-ol]
19 | ≤ 100 nM |  | O=S(=O)(c1ccccc1)N1CCC[C@@H](n2cc(Oc3nc(O)c4ccncc4n3)cn2)C1 [Example 152, 2-({1-[(3R)-1-(benzenesulfonyl)piperidin-3-yl]-1H-pyrazol-4-yl}oxy)pyrido[3,4-d]pyrimidin-4-ol]
20 | ≤ 100 nM |  | Oc1nc(Oc2cnn([C@H]3CCCNC3)c2)nc2cnccc12 [Example 160, 2-({1-[(3S)-piperidin-3-yl]-1H-pyrazol-4-yl}oxy)pyrido[3,4-d]pyrimidin-4-ol]
21 | 1000 to 10000 nM |  | Oc1nc(OCc2ccc(C(F)(F)F)cc2)nc2cnccc12 [Example 170, 2-{[4-(trifluoromethyl)phenyl]methoxy}pyrido[3,4-d]pyrimidin-4-ol]
22 | 1000 to 10000 nM |  | Oc1nc(OCc2ccccc2Cl)nc2cnccc12 [Example 171, 2-[(2-chlorophenyl)methoxy]pyrido[3,4-d]pyrimidin-4-ol]
23 | 1000 to 10000 nM |  | Oc1nc(OCc2c(Cl)cccc2Cl)nc2cnccc12 [Example 172, 2-[(2,6-dichlorophenyl)methoxy]pyrido[3,4-d]pyrimidin-4-ol]
24 | 1000 to 10000 nM |  | Oc1nc(OCc2cccc(Cl)c2Cl)nc2cnccc12 [Example 173, 2-[(2,3-dichlorophenyl)methoxy]pyrido[3,4-d]pyrimidin-4-ol]
25 | ≤ 100 nM |  | Oc1nc(OCCc2ccc(Cl)cc2)nc2cnccc12 [Example 174, 2-[2-(4-chlorophenyl)ethoxy]pyrido[3,4-d]pyrimidin-4-ol]
26 | 1000 to 10000 nM |  | Oc1nc(OCCc2ccc(Cl)c(Cl)c2)nc2cnccc12 [Example 175, 2-[2-(3,4-dichlorophenyl)ethoxy]pyrido[3,4-d]pyrimidin-4-ol]
27 | 1000 to 10000 nM |  | Oc1nc(OC(c2ccccc2)C(F)(F)F)nc2cnccc12 (stereo not drawn) [Example 176, 2-(2,2,2-trifluoro-1-phenylethoxy)pyrido[3,4-d]pyrimidin-4-ol]

Row | Compound | IC50 [1] | IC50 [2]
28 | CC(C)CCOc1nc(O)c2ccncc2n1 [Example 15, 2-(3-methylbutoxy)pyrido[3,4-d]pyrimidin-4-ol] | ≤ 100 nM | > 10000 nM
29 | Oc1nc(OCCCC(F)(F)F)nc2cnccc12 [Example 20, 2-(4,4,4-trifluorobutoxy)pyrido[3,4-d]pyrimidin-4-ol] | ≤ 100 nM | > 10000 nM
